Earlier results as cited in patent publication US20220378756A1, “ACTIVATING PYRUVATE KINASE R” (FORMA Therapeutics, Inc., priority 2019, published 2022).
Where two headings read alike, the source gives them in different places.

What was measured:
aromatase = molecular target: T1, aromatase (Homo sapiens, UniProt P11511); conditions: Yang et al. 2018; Grace et al. 2019; cited from earlier work
T1 sequence (P11511 1-503): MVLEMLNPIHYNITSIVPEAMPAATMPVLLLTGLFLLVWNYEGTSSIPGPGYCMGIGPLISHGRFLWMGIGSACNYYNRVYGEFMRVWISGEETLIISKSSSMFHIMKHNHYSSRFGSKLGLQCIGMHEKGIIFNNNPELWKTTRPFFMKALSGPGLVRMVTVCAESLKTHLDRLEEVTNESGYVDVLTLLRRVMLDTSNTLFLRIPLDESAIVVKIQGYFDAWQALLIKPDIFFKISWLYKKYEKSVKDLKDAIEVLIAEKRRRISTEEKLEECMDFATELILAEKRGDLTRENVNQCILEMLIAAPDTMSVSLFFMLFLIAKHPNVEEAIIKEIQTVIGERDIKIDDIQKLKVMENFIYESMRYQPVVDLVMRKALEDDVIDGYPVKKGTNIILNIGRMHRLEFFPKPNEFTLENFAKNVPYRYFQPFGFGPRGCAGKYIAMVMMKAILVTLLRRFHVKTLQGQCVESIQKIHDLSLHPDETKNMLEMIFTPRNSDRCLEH

[1] = cited from earlier work

O=C(c1ccc(NS(=O)(=O)c2cccc3cccnc23)cc1)N1CCN(CC2CC2)CC1 [AG-348]
aromatase inhibition (aromatase): Aromatase inhibition has been observed

CC(C)n1nccc1-c1ncccc1COc1cccc(O)c1C=O [voxelotor, 2-hydroxy-6-((2-(1-isopropyl-1H-pyrazol-5-yl)pyridin-3-yl)methoxy)benzaldehyde]
AUC increase with high-fat, high-calorie meal vs fasted ([1]; plasma): 42%
Cmax increase with high-fat, high-calorie meal vs fasted ([1]; plasma): 95%
steady state AUC higher in HbSC vs HbSS genotype patients ([1]; plasma): 23%
steady state Cmax higher in HbSC vs HbSS genotype patients ([1]; plasma): 15%
AUC increase with high-fat, high-calorie meal vs fasted ([1]; whole blood): 42%
Cmax increase with high-fat, high-calorie meal vs fasted ([1]; whole blood): 45%
steady state AUC higher in HbSC (n=11) vs HbSS (n=220) genotype patients ([1]; whole blood): 50%
steady state Cmax higher in HbSC (n=11) vs HbSS (n=220) genotype patients ([1]; whole blood): 45%
